Reference: the METLIN SMRT retention time set (Domingo-Almenara et al. 2019)

Assay: gradient 5% acetonitrile 3 min, to 50% in 2 min, to 85% in 15 min, held 3 min, 100 µL/min
Conditions: column: Zorbax Extend-C18 2.1 x 50 mm; eluents: water / acetonitrile, 0.1% formic acid
Method in brief: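 A Zorbax Extend-C18 column (2.1 × 50 mm, 1.8 μm) run at 100 μL/min with water and acetonitrile, both containing 0.1% formic acid, separated mixtures of ~100 pure standards. The HPLC was coupled to a quadrupole time-of-flight mass spectrometer operated in positive and negative ionization mode, with dead and dwell volumes of 40 μL and 900 μL. Each retention time was taken from a computationally picked adduct peak that was then manually inspected.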

Row | SMILES | RP-LC retention time [s]
1 | CN(c1cccc(Cl)c1)S(=O)(=O)c1cc2n(c1)CCCNC2=O | 726
2 | Fc1ccccc1Cn1cccc1-c1nc(-c2ccc3c(c2)OCO3)no1 | 1230
3 | Cn1ncc2c3ccccc3n(CC(=O)N3CCN(Cc4ccc5c(c4)OCO5)CC3)c2c1=O | 622
4 | CCCOc1nccnc1N1CCC(N(C)C(=O)c2ccc(C)nc2)C1 (stereo not given) | 657
5 | CC(Oc1ccc(-c2cnc3ccccc3n2)cc1)C(=O)N1CCN(c2ccccn2)CC1 (stereo not given) | 650
6 | CCOc1cc(-c2noc(-c3nnn4c3COC(c3ccc(F)cc3)C4)n2)ccc1OC (stereo not given) | 1130
7 | Cc1onc(C(=O)N2CCc3c(c(-c4nncn4CC4CC4)nn3C)C2)c1Cn1cc(Cl)cn1 | 735
8 | Cc1nn(-c2ccc(N3CCCCC3)nn2)c(C)c1CCC(=O)NCc1ccco1 | 667
9 | CCOC(=O)c1c(C)oc2nc(C)nc(NCCCN(CC)c3ccccc3)c12 | 825
10 | Cc1cc2nn(CC(=O)Nc3ccc4c(c3)OCCO4)c(=O)n2c(-c2ccc(F)cc2)n1 | 783
11 | Cc1ccccc1-c1nnc(COc2ccc(NC(=O)c3ccsc3)cc2)o1 | 911
12 | O=C(CCC1CCCN(S(=O)(=O)c2ccccc2F)C1)NC1CCS(=O)(=O)C1 (stereo not given) | 748
13 | CCOC(=O)c1ccc(NC(=O)C2(c3cccs3)CCOCC2)cc1 | 956
14 | CCN(CC)S(=O)(=O)c1cc(-c2nnc(-c3ccccc3OC)o2)ccc1OC | 903
15 | CCn1ccc(C(=O)N2CC(Oc3ccc(-c4nc(C)no4)cc3)C2)n1 | 819
16 | NC(=O)COC1CCC12CCN(C(=O)C1CCCCCC1)CC2 (stereo not given) | 740
17 | O=C(CSc1nnnn1-c1ccccc1)c1ccc2c(c1)OCCO2 | 868
18 | CCOC(CCNC(=O)CCC(=O)Nc1ccc2nc(N3CCN(C)CC3)cc(C)c2c1)OCC | 546
19 | Cc1cc(C)cc(NC(=O)Cn2nc3c(N(C)C4CCCCC4)nccn3c2=O)c1 | 846
20 | COc1ccccc1-c1nc(Cc2noc(-c3ccccc3)n2)c(C)o1 | 1040
21 | O=C(c1ccc(Br)o1)N1CCN(c2nc3ccccc3nc2C(F)(F)F)CC1 | 1140
22 | O=C(NCc1cc(F)ccc1F)C1CCN(c2cnc(N3CCCC3)nc2)CC1 | 667
23 | CCCC(=O)Nc1ccc(CCc2nc3ccc(C(=O)NCCC4=CCCCC4)cc3[nH]2)cc1 | 734

Row | SMILES | RP-LC retention time [s]
24 | Cn1nccc1-c1cccc(-c2noc(-c3cccc(Cl)c3)n2)c1 | 1260
25 | CCOCc1nc(C2CCCN(C(=O)NC3CCCCC3)C2)no1 (stereo not given) | 804
26 | Cc1nn(-c2ccc(Cl)nn2)c2c1CCC2 | 946
27 | O=C(NCC1CCCO1)C(=O)NCC(c1cccs1)S(=O)(=O)c1ccc(F)cc1 (stereo not given) | 749
28 | CCOc1ccc(NC(=O)Cn2nc3cc(-c4ccccc4)nc(C)n3c2=O)cc1 | 838
29 | CCN1CCN(c2c(S(=O)(=O)c3ccc(OC)cc3)cnc3cc(OC)c(OC)cc23)CC1 | 628
30 | Cc1ccc(F)cc1S(=O)(=O)N1CCC2(C1)C(=O)Nc1ccccc12 (stereo not given) | 866
31 | O=C(Cc1csc(COc2ccccc2)n1)N1CCN(c2ccccn2)CC1 | 617
32 | CC(C)NC(=O)c1ccc(OCC2CCN(C(=O)c3ccccc3F)CC2)cc1 | 822
33 | COc1ccc(NS(=O)(=O)c2cn(CC(C)C)c3ncccc23)cc1F | 896
34 | O=S(=O)(c1ccc(Cl)s1)N1CCc2nc(-c3ccccc3)ncc2C1 | 1170
35 | O=C1CCCc2cc(S(=O)(=O)NCC3CCN(Cc4ccccc4F)CC3)ccc2N1 | 596
36 | COCCNC(=O)c1ccc2c(c1)N(Cc1ccc(F)cc1)C(=O)CO2 | 717
37 | CCCN1C(=O)COc2ccc(-c3noc(Cc4c[nH]c5ccccc45)n3)cc21 | 1040
38 | COc1ccc(N2CCN(c3cc(SCC(=O)Nc4ccc(F)cc4)ncn3)CC2)cc1 | 1100
39 | CCOc1ccc(NC(=O)NCC2CCOCC2)cc1 | 685
40 | Cc1cc(C)c2nc(-c3ccccc3Br)cc(C(=O)O)c2c1 | 1130
41 | Cc1ccc(CNC(=O)N2CC(N(CC3CC3)C3CCOCC3)C2)cc1 | 582
42 | Cn1c(CNC(=O)CN2CCN(Cc3ccc(F)cc3)C2=O)nc2ccccc21 | 628
43 | CCc1ccc(-c2cc(C(F)(F)F)on2)cc1S(=O)(=O)N1CCCCC1CC (stereo not given) | 749
44 | COCCNC(=O)NCCn1c(-c2ccc(C)cc2)nc2cccnc21 | 588
45 | COc1ccc(-c2ncc3c(n2)CCN(S(=O)(=O)Cc2ccc(C)cc2)C3)cc1 | 1050
46 | Cc1cc2nc(C(=O)Nc3cccc(C)c3C)cc(C)n2n1 | 1020

Row | SMILES | RP-LC retention time [s]
47 | CCn1ncc(NC(=O)COc2ccc(F)cc2)c(N2CCCCC2)c1=O | 793
48 | CCN(CC)c1ccc(NC(=O)c2cccs2)cc1C(=O)O | 626
49 | O=C(c1ccc(-c2nccnc2N2CCCC2)cc1)N1CCN(c2ccccc2)CC1 | 942
50 | COc1ccc(Cl)c2c(=O)c3c([nH]c12)CCN(CC(=O)Nc1cccc(Cl)c1C)C3 | 651
51 | CCc1nc2cc(-c3noc(-c4cc(Cl)ccc4OC)n3)ccc2o1 | 1220
52 | COc1ccc(OCC(=O)N2CCC(C(=O)NCCc3csc(-c4cccs4)n3)CC2)cc1 | 777
53 | COc1ccc(N2CCN(c3cc(SCC(=O)Nc4ccc(C)cc4F)ncn3)CC2)cc1 | 1110
54 | CCN(CC)CCN1C(=O)c2ccccc2NC1c1ccc(F)cc1 (stereo not given) | 641
55 | CNC(=O)N1CCOc2cc(C)ccc21 | 713
56 | CCOC(=O)N1CCN(C(=O)CSc2nnc(C3COc4ccccc4O3)o2)CC1 (stereo not given) | 762
57 | O=C(COc1ccc(F)cc1)NCC1CCOCC1 | 677
58 | NC(=O)C1CCN(C(=O)CSc2nnnn2-c2ccccc2)CC1 | 621
59 | COc1cc([N+](=O)[O-])cc2sc(NC(=O)c3cc(=O)c4ccccc4o3)nc12 | 877
60 | Cc1cc(C)c(C(=O)N2CCCC(C(=O)N3CCN(c4cccc(Cl)c4)CC3)C2)[nH]1 (stereo not given) | 953
61 | O=C(Nc1ccccc1Cl)C1CCCN(C(=O)Cc2cccc3ccccc23)C1 (stereo not given) | 995
62 | O=C(O)c1cc(-c2cccs2)[nH]c(=O)n1 | 551
63 | COc1ccc(NC(=O)CCc2c(C)nn(-c3cc(N(C)C)ncn3)c2C)c(OC)c1 | 776
64 | Cc1cccc(Nc2nc(CC(=O)NCc3ccccc3OC(F)(F)F)cs2)n1 | 708
65 | Cc1ccc(S(=O)(=O)N2CCc3c(c(-c4nnc(-c5ccccc5F)o4)nn3C)C2)cc1C | 988
66 | Cc1ccc2c(c1)N(Cc1nc(-c3cccc(Br)c3)no1)C(=O)CO2 | 1180
67 | CC1=C(C(=O)Nc2cccc(Cl)c2C)C2(CCCCCC2)OC1=O | 1090
68 | Cn1nc(-c2nc(C(C)(C)C)no2)ccc1=O | 761
69 | C=CCn1c(SCC(=O)c2cc(C)n(CCOC)c2C)nc2sc(C)c(C)c2c1=O | 1140

Row | SMILES | RP-LC retention time [s]
70 | CCn1c(-c2cccc(C(=O)NCc3cccs3)c2)nc2cccnc21 | 733
71 | COc1ccc(-c2noc(-c3nc(C4CC4)no3)n2)cc1 | 1090
72 | Cc1cc(C(=O)NCCCSC2CCCCC2)n(-c2ccccc2)n1 | 1030
73 | CCn1c(=O)c2ccn(CC(=O)Nc3cc(C)ccn3)c2n(CC)c1=O | 644
74 | O=C(NCCN1CCOCC1)C1CCN(S(=O)(=O)c2ccc(-c3noc(C4CC4)n3)cc2)CC1 | 642
75 | O=C(O)c1nnn(-c2ccc3c(c2)OCCO3)c1-c1ccncc1 | 593
76 | Cc1nc2cc(N3CC(C(=O)N4CCN(c5ccccc5C)CC4)CC3=O)ccc2o1 (stereo not given) | 848
77 | CC1CCCN(c2ccc(NC(=O)C(C)C)c(C(=O)O)c2)C1 (stereo not given) | 627
78 | COc1ccc(S(=O)(=O)N2CC3CN(C(=O)C4CCCO4)CC(C2)O3)cc1 (stereo not given) | 659
79 | COc1cccc(-c2cc(C(=O)N3CCN(c4ncccn4)CC3)n(C)n2)c1 | 754
80 | Cc1ccc(-c2nc(-c3ccc4ncn(C(C)C)c4c3)no2)cc1 | 857
81 | COc1ccccc1Oc1c(NS(=O)(=O)c2ccc(C)cn2)nc(-c2ccncc2)nc1OC | 870
82 | O=C(NCC1CCOCC1)c1ccc2c(c1)OCO2 | 655
83 | Cc1ccc(NC(=O)Cn2c(=O)n(-c3ccccc3)c3ncccc32)c(C)c1 | 848
84 | CCN1CCN(Cc2nc(-c3ccc(N4CCCC(C)C4)nc3)no2)CC1 (stereo not given) | 610
85 | Cc1ccc(C(=O)N2C[C@@H](F)C[C@H]2C(=O)N2CCCCC2)c(C)c1 | 740
86 | CCn1ncc(NC(=O)c2ccc(F)cc2)c(N2CCOCC2)c1=O | 772
87 | Cc1ccc(NC(=O)C2CCCN(S(=O)(=O)c3cn(C(C)C)cn3)C2)c(Cl)c1 (stereo not given) | 834
88 | O=C1CCCN1CCCN1C(=O)[C@H]2CN(Cc3cccc(Cl)c3)C[C@H]2C1=O | 628
89 | COc1ccccc1-n1nnc(C(=O)OCc2nc(-c3ccccc3)oc2C)c1C | 972
90 | NC(=O)c1cccc2cn(-c3ccc([C@@H]4CCCNC4)cc3)nc12 | 630
